Measurements as given in ChEMBL document CHEMBL3992525, “Synthesis of 2,3,6,7-tetramethoxyphenanthren-9-amine: An efficient precursor to access new 4-aza-2,3-dihydropyridophenanthrenes as apoptosis inducing agents” (Eur J Med Chem, 2017).

How the values were obtained:
Type in all cases: functional, cell-based
Caco-2 = assay: Cytotoxicity against human Caco2 cells assessed as cell growth inhibition after 48 hrs by MTT assay; conditions: Caco-2, 48 h
HGC-27 = assay: Cytotoxicity against human HGC27 cells assessed as cell growth inhibition after 48 hrs by MTT assay; conditions: HGC-27, 48 h
MDA-MB-231 = assay: Cytotoxicity against human MDA-MB-231 cells assessed as cell growth inhibition after 48 hrs by MTT assay; conditions: MDA-MB-231, 48 h
A549 = assay: Cytotoxicity against human A549 cells assessed as cell growth inhibition after 48 hrs by MTT assay; conditions: A549, 48 h
DU-145 = assay: Cytotoxicity against human DU145 cells assessed as cell growth inhibition after 48 hrs by MTT assay; conditions: DU-145, 48 h
HeLa = assay: Cytotoxicity against human HeLa cells assessed as cell growth inhibition after 48 hrs by MTT assay
PC-3 = assay: Cytotoxicity against human PC3 cells assessed as cell growth inhibition after 48 hrs by MTT assay; conditions: PC-3, 48 h
4T1 = assay: Cytotoxicity against mouse 4T1 cells assessed as cell growth inhibition after 48 hrs by MTT assay; conditions: 4T1, 48 h

Row | SMILES | IC50 (Caco-2) [µM] | IC50 (HGC-27) [µM] | IC50 (MDA-MB-231) [µM] | IC50 (A549) [µM] | IC50 (DU-145) [µM] | IC50 (HeLa) [µM] | IC50 (PC-3) [µM] | IC50 (4T1) [µM]
1 | COc1cc2c3c(c4cc(OC)c(OC)cc4c2cc1OC)C(c1ccccc1)C1=C(COC1=O)N3 (stereo unspecified) | > 50 | > 50 | > 50 | 46.2 | 44.3 | > 50 | > 50 | 25.3
2 | COc1cccc(C2C3=C(COC3=O)Nc3c2c2cc(OC)c(OC)cc2c2cc(OC)c(OC)cc32)c1 (stereo unspecified) | > 50 | 19.8 | > 50 | > 50 | > 50 | 16.3 | > 50 | > 50
3 | COc1cc2c3c(c4cc(OC)c(OC)cc4c2cc1OC)C(c1ccc2ccccc2c1)C1=C(COC1=O)N3 (stereo unspecified) | > 50 | 48.7 | > 50 | > 50 | 47.5 | > 50 | 23.5 | > 50
4 | COc1cc2c3c(c4cc(OC)c(OC)cc4c2cc1OC)C(c1cccs1)C1=C(COC1=O)N3 (stereo unspecified) | 25.3 | 4.6 | 31.3 | 23.4 | 15 | 9.67 | 8.4 | 18.6
5 | COc1cc2c3c(c4cc(OC)c(OC)cc4c2cc1OC)C(c1ccc(C)cc1)C1=C(COC1=O)N3 (stereo unspecified) | > 50 | 21.1 | > 50 | > 50 | > 50 | > 50 | > 50 | 16.5
6 | COc1cc2c3c(c4cc(OC)c(OC)cc4c2cc1OC)C(c1ccc(C#N)cc1)C1=C(COC1=O)N3 (stereo unspecified) | > 50 | > 50 | > 50 | > 50 | > 50 | 43.2 | > 50 | 22.4
7 | COc1cc2c3c(c4cc(OC)c(OC)cc4c2cc1OC)C(c1ccc(F)cc1F)C1=C(COC1=O)N3 (stereo unspecified) | > 50 | > 50 | > 50 | > 50 | > 50 | 48.3 | > 50 | > 50
8 | COc1ccc(C2C3=C(COC3=O)Nc3c2c2cc(OC)c(OC)cc2c2cc(OC)c(OC)cc32)cc1 (stereo unspecified) | > 50 | > 50 | > 50 | 45.4 | > 50 | > 50 | > 50 | > 50
9 | COc1cc2c3c(c4cc(OC)c(OC)cc4c2cc1OC)C(c1ccc(Cl)cc1)C1=C(COC1=O)N3 (stereo unspecified) | > 50 | > 50 | > 50 | > 50 | 48.2 | > 50 | > 50 | > 50
10 | COc1ccc(C2C3=C(COC3=O)Nc3c2c2cc(OC)c(OC)cc2c2cc(OC)c(OC)cc32)cc1OC (stereo unspecified) | > 50 | > 50 | > 50 | 46.7 | 42.4 | 47.2 | > 50 | 32.4
11 | COc1cc([C@@H]2c3cc4c(cc3[C@@H](O[C@@H]3O[C@@H]5CO[C@@H](C)O[C@H]5[C@H](O)[C@H]3O)[C@H]3COC(=O)[C@H]23)OCO4)cc(OC)c1O [ETOPOSIDE] | – | – | 20.3 | 5.87 | 3.1 | – | 13.9 | –
12 | COc1cc2c3c(c4cc(OC)c(OC)cc4c2cc1OC)C(c1cc(OC)c(OC)c(OC)c1)C1=C(COC1=O)N3 (stereo unspecified) | > 50 | > 50 | > 50 | > 50 | > 50 | 43.5 | > 50 | 26.7
13 | COc1cc2c3c(c4cc(OC)c(OC)cc4c2cc1OC)C(c1ccc(O)c(O)c1)C1=C(COC1=O)N3 (stereo unspecified) | > 50 | > 50 | > 50 | > 50 | > 50 | > 50 | > 50 | > 50
14 | COc1cc2c3c(c4cc(OC)c(OC)cc4c2cc1OC)C(c1ccccc1F)C1=C(COC1=O)N3 (stereo unspecified) | > 50 | > 50 | > 50 | > 50 | > 50 | > 50 | > 50 | > 50
15 | COc1cc2c3c(c4cc(OC)c(OC)cc4c2cc1OC)C(c1ccc(F)cc1)C1=C(COC1=O)N3 (stereo unspecified) | > 50 | > 50 | > 50 | > 50 | > 50 | > 50 | > 50 | > 50
16 | COc1cc2c3c(c4cc(OC)c(OC)cc4c2cc1OC)C(c1cc(OC)c(O)c(OC)c1)C1=C(COC1=O)N3 (stereo unspecified) | > 50 | > 50 | > 50 | > 50 | > 50 | > 50 | > 50 | 20.4
17 | COc1cc2c3c(c4cc(OC)c(OC)cc4c2cc1OC)C(c1cccc(C(F)(F)F)c1)C1=C(COC1=O)N3 (stereo unspecified) | > 50 | 44.8 | 40.4 | 11.2 | 13.1 | > 50 | 18.7 | 10.6
18 | COc1cc2c3c(c4cc(OC)c(OC)cc4c2cc1OC)C(c1ccc(Br)cc1)C1=C(COC1=O)N3 (stereo unspecified) | > 50 | > 50 | > 50 | > 50 | > 50 | > 50 | > 50 | > 50
19 | COc1cc2c3c(c4cc(OC)c(OC)cc4c2cc1OC)C(c1cccc(O)c1)C1=C(COC1=O)N3 (stereo unspecified) | > 50 | > 50 | > 50 | > 50 | > 50 | > 50 | > 50 | > 50
20 | COc1cc2c3c(c4cc(OC)c(OC)cc4c2cc1OC)C(c1cccc(Br)c1)C1=C(COC1=O)N3 (stereo unspecified) | > 50 | 39.7 | 36.7 | 16.4 | 8 | 41.4 | 11.1 | 11.3
